Measurements: ChEMBL document CHEMBL1139585, “A 3D-QSAR model for CYP2D6 inhibition in the aryloxypropanolamine series” (Bioorg Med Chem Lett, 2005)

biological target: Cytochrome P450 2D6 (Homo sapiens, UniProt P10635); test: Inhibitory activity against recombinant human Cytochrome P450 2D6 (CYP2D6) after incubated for 45 minutes
Sequence (P10635 whole entry): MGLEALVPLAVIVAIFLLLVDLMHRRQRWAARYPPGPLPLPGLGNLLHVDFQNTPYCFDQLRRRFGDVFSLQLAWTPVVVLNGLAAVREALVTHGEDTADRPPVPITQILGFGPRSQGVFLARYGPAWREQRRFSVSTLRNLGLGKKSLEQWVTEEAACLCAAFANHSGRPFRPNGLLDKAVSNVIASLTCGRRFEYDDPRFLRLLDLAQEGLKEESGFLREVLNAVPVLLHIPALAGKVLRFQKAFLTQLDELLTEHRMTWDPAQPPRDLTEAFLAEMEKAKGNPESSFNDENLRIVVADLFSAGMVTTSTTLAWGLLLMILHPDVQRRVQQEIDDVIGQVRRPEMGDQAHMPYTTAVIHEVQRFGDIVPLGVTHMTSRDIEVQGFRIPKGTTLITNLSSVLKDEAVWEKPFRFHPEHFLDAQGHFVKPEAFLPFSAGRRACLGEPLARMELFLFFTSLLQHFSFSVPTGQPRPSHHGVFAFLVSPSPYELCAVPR

Row | IC50 [nM] | Structure (SMILES)
1 | 50 | CC(C)(Cc1c[nH]c2ccccc12)NCC(O)COc1c(C#N)ccc2ccccc12 (stereo unspecified)
2 | 3800 | CC(C)N[C@@H](C)C(O)COc1cccc2ccccc12 (stereo partly specified)
3 | 280 | COCCc1ccc(OCC(O)CNC(C)(C)CSc2ccccc2C)cc1 (stereo unspecified)
4 | 21000 | CC(C)NC[C@@H](O)COc1ccc(-c2ccccc2)c2ccccc12
5 | 420 | COc1ccc2c(CC(C)(C)NCC(O)COc3ccccc3C#N)c[nH]c2c1 (stereo unspecified)
6 | 21000 | C=CCOc1ccc(OCC(O)CNC(C)C)cc1 (stereo unspecified)
7 | 28000 | CC(C)(C)NCC(O)COc1ccccc1 (stereo unspecified)
8 | 120 | CCc1ccccc1OCC(O)CNC(C)(C)Cc1cc2ccccc2[nH]1 (stereo unspecified)
9 | 4800 | CCc1cccc2cc(CC(O)CNC(C)(C)C)oc12 (stereo unspecified)
10 | 50 | COc1ccc2[nH]cc(CC(C)(C)NCC(O)COc3ccccc3C#N)c2c1 (stereo unspecified)
11 | 8400 | COc1ccc2c(OCC(O)CNC(C)C)cccc2c1 (stereo unspecified)
12 | 90 | Cc1ccccc1OCC(O)CNC(C)(C)Cc1cc2ccccc2n1C (stereo unspecified)
13 | 50 | CC(C)(Cc1csc2ccccc12)NCC(O)COc1ccccc1C#N (stereo unspecified)
14 | 80 | CC(C)(Cc1c[nH]c2ccc(O)cc12)NCC(O)COc1ccccc1C#N (stereo unspecified)
15 | 18000 | CC(C)NCC(O)COc1ccccc1 (stereo unspecified)
16 | 66000 | CC(C)NCC(O)COc1ccc(CCOCC2CC2)cc1 (stereo unspecified) [BETAXOLOL]
